Test results: US20260306403A1, “MODIFIED LIPOSOME FOR DRUG DELIVERY, USE OF LIPOSOME FOR DRUG DELIVERY, ESPECIALLY WITH ANTI-CANCER ACTIVITY, AND WAYS TO LOAD LIPOSOME WITH DRUGS, ESPECIALLY WITH ANTI-CANCER ACTIVITY” (BS BIOTECHNA SPOLKA AKCYJNA, priority 2023, published 2026)

Tests used:
[1] = phase I and II clinical trials; cited from earlier work
[2] = Acute toxicity test on Zebrafish larvae, emetine and 14 pH EM liposomes, 24 and 48 h; set-up: species or system Zebrafish (Danio rerio); details: in vivo, 48 h exposure, 2 dpf larvae, calculated for emetine, read-out: half maximal lethal concentration (LC50)
Description: In order to compare the toxicity of emetine and 14 pH EM liposomes with emetine, an acute toxicity test was conducted on Zebrafish (Danio rerio). The test was designed to determine the acute or lethal toxicity of the formulations on the embryonic stages of the fish. Briefly, Zebrafish 2 dpf larvae were treated with emetine and 14 pH EM liposomes with emetine for 24 and 48 hours at concentrations ranging from 0.73 μM to 125 μM calculated for emetine. […] The water for embryo culture and solution preparation was embryo culture medium (E3 solution: 5 mmol/L NaCl, 0.17 mmol/L KCl, 0.33 mmol/L CaCl2 and 0.33 mmol/L MgSO4, containing no methylene blue, and with a pH value of approximately 7.2). The experiment was carried out in 24-well plates, 5 embryos per well, 10 per group. The plate was covered and kept in an incubator set at 28±0.5° C. with a light/dark period of 12/12 hours. During the exposure period, larvae were tracked every 24 hours and four visual observations, including coagulation of fertilised eggs, lack of somite formation, lack of separation of tail bud from yolk sac and lack of heartbeat, were recorded as indicators of mortality.

Zebrafish larvae = test: Absorption of fluorescently labelled emetine, free and in pH-type liposomes, by Zebrafish larvae; assay type: in vivo
Description: To compare the uptake of emetine and pH-type liposomes with emetine, Zebrafish larvae were exposed to fluorescently labelled free emetine and fluorescently labelled emetine encapsulated in pH-type liposomes (synthesis identical to that of 14pHEM) for 4 and 48 h in a concentration range from 0.73 μM to 14.7 μM for emetine and 4.41 μM to 8.82 μM for pH-type liposomes with fluorescent emetine per emetine. Photographs of fish from each group were taken at the final time point to monitor the intensity of fluorescence from absorbed emetine. A Discovery V8 stereoscopic optical microscope and Zeiss equipment were used for the observations.

[3] = Acute toxicity test on Zebrafish larvae, emetine / BEM and staurosporine / BST liposomes, 96 h; assay type: in vivo, Zebrafish (Danio rerio); details: 96 h incubation, staurosporine free or in BST
Description: In order to compare the toxicity of emetine and staurosporine with the same drugs loaded into BpH liposomes, an acute toxicity test was conducted on Zebrafish (Danio rerio). The test was designed to determine the acute or lethal toxicity of the chemicals on the embryonic stages of the fish. Briefly, zebrafish larvae were treated with emetine and […] liposomes or staurospoine and staurosporine with BST liposomes for a period of 96 hours.
The embryo culture fluid and solution preparation was embryo culture medium (E3 solution: 5 mmol/L NaCl, 0.17 mmol/L KCl, 0.33 mmol/L CaCl2 and 0.33 mmol/L MgSO4, containing no methylene blue, and with a pH value of approximately 7.2). The experiment was carried out in 24-well plates, 5 embryos per well, 10 per group. The plate was covered and kept in an incubator set at 28±0.5° C. with a light/dark period of 12/12 hours. During the exposure period, larvae were tracked every 24 h and four visual observations, including coagulation of fertilised eggs, lack of somite formation, lack of separation of tail bud from yolk sac and lack of heartbeat, were recorded as indicators of mortality. At the end of the exposure period (96 hpf), acute toxicity was determined based on a positive result from any of the four recorded visual observations and the LC50 was calculated. Liposomes alone without drug loading were also tested.

Structure (SMILES)	therapeutic index [1]	toxicity on increasing the dose [1]	LC50 at 48 h [2] [µM]	location of absorbed emetine in larvae (Zebrafish larvae; fluorescence microscopy)	uptake / amount of absorbed emetine (Zebrafish larvae; free 1.47, 3.67, 7.35 μM, in liposomes 4.41 and 8.82 μM)	LC50 at 96 h [3] [µM]
CC[C@H]1CN2CCc3cc(OC)c(OC)cc3[C@@H]2C[C@@H]1C[C@H]1NCCc2cc(OC)c(OC)cc21 [emetine]	very limited	cardiac toxicity	5.64	within the yolk of the larvae, especially in the liver and intestine region	increases with dose	
CN[C@@H]1C[C@H]2O[C@@](C)([C@@H]1OC)n1c3ccccc3c3c4c(c5c6ccccc6n2c5c31)C(=O)NC4 [staurosporine]						0.017
